Molecules are shown by their SMILES. pIC50: −log10 of the molar value. The source made the active and inactive calls. The rule behind the calls is not given here.

One test deals with T1, Protein farnesyltransferase (Homo sapiens, UniProt P49354+P49356). In words: Inhibition of human recombinant FPTase by Ras farnesyl-protein-transferase assay. Format: protein-complex assay.
One may read the pIC50 as the IC50 on a negative log10 scale, so that one unit is a factor of ten. Turning to `COc1cc(O)c(Oc2cc(C)cc(O)c2C(=O)O)c(CO)c1` [BARCELONEIC ACID A], the pIC50 was 4.40.

Another test deals with T1, Protein farnesyltransferase. Kind of test: Inhibition of human recombinant FPTase up to ~300 uM by Ras farnesyl-protein-transferase assay. The class given is protein-complex assay.
As to `COc1cc(CO)c(Oc2cc(C)cc(OC)c2C(=O)O)c(OC)c1`, the outcome was inactive.

As for `COc1cc(O)c2c(c1)COC(=O)c1c(O)cc(C)cc1O2`, the outcome was inactive.

Take `Cc1cc(O)c(C(=O)O)c(O)c1`: the outcome was inactive.

As to `COc1cc(O)c(Oc2cc(C)cc(O)c2C(=O)O)c(C(=O)O)c1`, the outcome was inactive.

Consider `COC(=O)c1c(OC)cc(C)cc1Oc1c(CO)cc(OC)cc1OC`, for which the result was inactive.

Take `COc1cc(CO)c(Oc2cc(C)cc(O)c2C(=O)O)c(OC)c1`: the result was inactive.

The values are drawn from ChEMBL document CHEMBL1159267, “Barceloneic acid A, a new farnesyl-protein transferase inhibitor from a Phoma species” (J Nat Prod, 1995).
